Test results taken from patent US8454986B2, “Silver nanoparticles with specific surface area and a method for producing them” (Janssen Pharmaceutica N.V., priority 2008, dated 2013).

How the values were obtained:
Assay type in all cases: cell-based
[1] = tested on: Aspergillus niger; assay: Minimal inhibitory concentration, spore culture; conditions: mold
[2] = tested on: Candida albicans; assay: Minimal inhibitory concentration, macrodilution method; conditions: yeast; 24 h, 30° C.
Source text: (§1) For the determination of the minimal inhibitory concentration (MIC) of nanosilver against different bacteria and fungi, i.e. the lowest concentration at which these micro-organisms show an inhibition of growth, the following protocol was used: • Journal of Antimicrobial Chemotherapy Supplement (JAC [2001] 48, Suppl. S1), March 2006, Chapter 2: Determination of minimal inhibitory concentrations; Macrodilution method.
(§2) Cultures of Staphylococcus aureus, Pseudomonas aeruginosa and Candida albicans were grown overnight and diluted to 150×10^6 bacterial cells or 5×10^6 yeast cells per mL (according to an optical density measured at 610 nm). These stock solutions were further diluted 500 times, […]. The final culture was then two times diluted in the final microtiter plate, resulting in a final dilution of 1:1000.
(§3) The test compound was diluted into the microtiter cultures at a concentration range from 0.5 to 470 mg/L Ag. The microtiter plates were then incubated at 30° C. on a shaker. After 24 h the plates were taken out of the incubation oven and growth was compared with the control row, both visually and by OD measurement at 610 nm.

[3] = tested on: Staphylococcus aureus; assay: as above; conditions: Gram positive; 24 h, 30° C.
Source text: as §1, §2, §3

[4] = tested on: Pseudomonas aeruginosa; assay: as above; conditions: Gram negative; 24 h, 30° C.
Source text: as §1, §2, §3

Structure (SMILES): O=[N+]([O-])[O-].[Ag+] [silver nitrate]
- Minimal Inhibitory Concentration (MIC) Aspergillus niger [1]: 25 mg Ag/L
- Minimal Inhibitory Concentration (MIC) Candida albicans [2]: 12.5 mg Ag/L
- Minimal Inhibitory Concentration (MIC) staphylococcus aureus [3]: 12.5 mg Ag/L
- Minimal Inhibitory Concentration (MIC) Pseudomonas aeruginosa [4]: 6.3 mg Ag/L
